Legend:
cathepsin B = cathepsin B (Capra hircus, UniProt A0A452G2V1); assay: Inhibition of purified goat liver cathepsin B, BANA substrate, pH 6.0; type: biochemical
cathepsin H = molecular target: T1, cathepsin H (Capra hircus, UniProt A0A452G5L2); assay: Inhibition of purified goat liver cathepsin H, Leu-βNA substrate, pH 7.0; type: biochemical
T1 sequence (A0A452G5L2 with tags, fused parts or gaps): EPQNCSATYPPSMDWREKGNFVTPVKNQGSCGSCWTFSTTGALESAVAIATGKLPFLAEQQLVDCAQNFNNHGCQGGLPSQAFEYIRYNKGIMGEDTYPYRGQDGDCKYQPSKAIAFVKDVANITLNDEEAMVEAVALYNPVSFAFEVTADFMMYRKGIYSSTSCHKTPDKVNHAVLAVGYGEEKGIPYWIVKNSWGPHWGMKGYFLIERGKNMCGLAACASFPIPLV

cathepsin L = cathepsin L (Capra hircus, UniProt A0A452FFI6); assay: Inhibition of purified goat liver cathepsin L, ZPheArg-4mβNA substrate, pH 6.0; type: biochemical
goat brain cathepsin B = conditions: read-out: Ki, goat brain cathepsin B; competitive; cited from earlier work
goat brain cathepsin L = conditions: read-out: Ki, goat brain cathepsin L; cited from earlier work

Row | SMILES | Ki (cathepsin B) | Ki (cathepsin H) | Ki (cathepsin L) | inhibition at 1 µM (cathepsin B; read-out: % inhibition of cathepsin B) | inhibition at 10 µM (cathepsin H; read-out: % inhibition of cathepsin H) | inhibition at 0.001 µM (cathepsin L; read-out: % inhibition of cathepsin L) | Ki (goat brain cathepsin B) | Ki (goat brain cathepsin L)
1 | NC(=O)N/N=C(\C=C\c1ccccc1Cl)c1ccccc1 [2a′, (1E)-1-((E)-3-(2-chlorophenyl)-1-phenylallylidene)semicarbazide] | 2.7 ± 0.04 µM | 33 ± 0.4 µM | 0.04 ± 0.0003 nM |  |  |  |  | 
2 | NC(=O)N/N=C(\C=C\c1ccc(Cl)cc1)c1ccccc1 [2c′, (1E)-1-((E)-3-(4-chlorophenyl)-1-phenylallylidene)semicarbazide] | 36.4 ± 0.5 µM | 21 ± 0.2 µM | 0.93 ± 0.007 nM |  |  |  |  | 
3 | O=C(/C=C/c1ccccc1Cl)c1ccccc1 [Compound 1a, (E)-3-(2-chlorophenyl)-1-phenylprop-2-en-1-one] | 19.5 ± 0.2 µM | 110 ± 1 µM | 6 ± 0.02 nM |  |  |  |  | 
4 | O=C(/C=C/c1cccc(Cl)c1)c1ccccc1 [Compound 1b, (E)-3-(3-chlorophenyl)-1-phenylprop-2-en-1-one] | 130 ± 2 µM | 312 ± 2 µM | 0.04 ± 0.0001 nM |  |  |  |  | 
5 | O=C(/C=C/c1cccc([N+](=O)[O-])c1)c1ccccc1 [Compound 1g, (E)-3-(3-nitrophenyl)-1-phenylprop-2-en-1-one] | 100 ± 1 µM | 60 ± 0.2 µM | 2.05 ± 0.03 nM |  |  |  |  | 
6 | NC(=O)N/N=C(/C=C/c1ccccc1Cl)c1ccccc1 [Compound 2a, (1Z)-1-((E)-3-(2-chlorophenyl)-1-phenylallylidene)semicarbazide] | 0.207 ± 0.001 µM | 43 ± 0.2 µM | 1.78 ± 0.02 nM |  |  |  |  | 
7 | NC(=O)N/N=C(/C=C/c1ccc(Cl)cc1)c1ccccc1 [Compound 2c, (1Z)-1-((E)-3-(4-chlorophenyl)-1-phenylallylidene)semicarbazide] | 27.3 ± 0.4 µM | 29 ± 0.5 µM | 1.17 ± 0.02 nM |  |  |  |  | 
8 | NC(=O)N/N=C(/C=C/c1cccc([N+](=O)[O-])c1)c1ccccc1 [Compound 2g, (1Z)-1-((E)-3-(3-nitrophenyl)-1-phenylallylidene)semicarbazide] | 41.3 ± 0.5 µM | 23 ± 0.3 µM | 2.05 ± 0.02 nM |  |  |  |  | 
9 | NC(=O)N1N=C(c2ccccc2)CC1c1ccccc1Cl (centres unmarked) [Compound 3a, 5-(2′-chlorophenyl)-3-phenyl-2-pyrazoline-1-carboxamide] | 9.4 ± 0.03 µM | 60 ± 0.3 µM | 31.6 ± 0.4 nM |  |  |  |  | 
10 | NC(=O)N1N=C(c2ccccc2)CC1c1cccc(Cl)c1 (centres unmarked) [Compound 3b, 5-(3′-chlorophenyl)-3-phenyl-2-pyrazoline-1-carboxamide] | 82.7 ± 1 µM | 25 ± 0.5 µM | 50.5 ± 0.3 nM |  |  |  |  | 
11 | NC(=O)N1N=C(c2ccccc2)CC1c1ccc(Cl)cc1 (centres unmarked) [Compound 3c] | 39 ± 0.2 µM | 66 ± 0.4 µM | 33 ± 0.1 nM |  |  |  |  | 
12 | COc1ccccc1C1CC(c2ccccc2)=NN1C(N)=O (centres unmarked) [Compound 3d] | 14.8 ± 0.07 µM | 40 ± 0.1 µM | 217 ± 4 nM |  |  |  |  | 
13 | COc1cccc(C2CC(c3ccccc3)=NN2C(N)=O)c1 (centres unmarked) [Compound 3e] | 34.9 ± 0.1 µM | 43 ± 0.1 µM | 8.2 ± 0.06 nM |  |  |  |  | 
14 | COc1ccc(C2CC(c3ccccc3)=NN2C(N)=O)cc1 (centres unmarked) [Compound 3f] | 69.3 ± 0.07 µM | 48 ± 0.2 µM | 0.5 ± 0.002 nM |  |  |  |  | 
15 | NC(=O)N1N=C(c2ccccc2)CC1c1cccc([N+](=O)[O-])c1 (centres unmarked) [Compound 3g, 5-(3′-nitrophenyl)-3-phenyl-2-pyrazoline-1-carboxamide] | 58.1 ± 0.05 µM | 38 ± 0.2 µM | 0.4 ± 0.005 nM |  |  |  |  | 
16 | NC(=O)N1N=C(c2ccccc2)CC1c1ccc([N+](=O)[O-])cc1 (centres unmarked) [Compound 3h] | 39 ± 0.03 µM | 60 ± 0.3 µM | 16.9 ± 0.3 nM |  |  |  |  | 
17 | NC(=O)N1N=C(c2ccccc2)CC1c1ccccc1 (centres unmarked) [Compound 3i] | 52.4 ± 0.01 µM | 192 ± 0.4 µM | 86.2 ± 0.2 nM |  |  |  |  | 
18 | Cc1ccc(C2CC(c3ccccc3)=NN2C(N)=O)cc1 (centres unmarked) [Compound 3j] | 116 ± 2 µM | 48 ± 0.5 µM | 23.4 ± 0.2 nM |  |  |  |  | 
19 | CC(=O)N[C@@H](CC(C)C)C(=O)N[C@@H](CC(C)C)C(=O)N[C@H](C=O)CCCNC(=N)N [Leupeptin, reference compound] |  |  |  | ~98.8% | ~52% | 89.2% | 0.0125 µM | 0.00145 µM

Reference: PMC7124378 (International Journal of Biological Macromolecules, 2015)
